Test results from patent publication US10781226B2, “Photoactivatable cancer prodrug” (Texas State University, priority 2017, dated 2020).
≈ marks a conversion by molar mass, not a printed value. Values belong to the compound of their own block, whether it stands above or below them.

Columns and labels:
[1] = test system: A375, A431, A549, MRC-5 cells; assay: Photocytotoxicity assay, summary across cell lines; assay type: cell-based
[2] = Solubility in demineralized water; assay type: physicochemical; conditions: read-out: maximum solubility
tubulin = conditions: polymerization enhancer control
Source text: Raw fluorescence was normalized by initial fluorescence for each sample. Samples consists of the caged drug (not irradiated), the caged drug irradiated with green light, and the caged drug irradiated with blue light.
In this assay, increased fluorescence indicates tubulin polymerization.

Compound: F[P-](F)(F)(F)(F)F.F[P-](F)(F)(F)(F)F.O.[Ru+2].c1ccc(-c2cccc(-c3ccccn3)n2)nc1.c1ccc(-c2ccccn2)nc1 [[3](PF6)2]
activity across all tested cell lines ([1]; all tested cell lines): no activity

solubility [2]: 10 µM (≈ 4.04 µg/mL)
Compound: CSCCCc1nc(=O)c2c(-c3ccccc3)c(C(=O)c3ccccc3)[nH]c2[nH]1 [compound 1]

Compound: [NH2][Pt]([NH2])([Cl])[Cl] [CDDP, cisplatin]
EC50 ([1]; range across all tested cell lines): 850 to 3060 nM

Compound: CC(=O)O[C@H]1C(=O)[C@@]2(C)[C@H]([C@H](OC(=O)c3ccccc3)[C@]3(O)C[C@H](OC(=O)[C@H](O)[C@@H](NC(=O)c4ccccc4)c4ccccc4)C(C)=C1C3(C)C)[C@]1(OC(C)=O)CO[C@@H]1C[C@@H]2O [paclitaxel, reference compound]
tubulin polymerization (tubulin): induces rapid polymerization of tubulin
